Data: patent US5556970A, “Lanolin fatty acids, a method for their fractionation, cosmetics and drugs for external use” (priority 1992, dated 1996)

Key:
[1] = tested on: atopic dermatitis, ichthyosis and age-associated wrinkles; conditions: in vivo; cited from earlier work
[2] = interaction with water (water solubility); type: physicochemical; conditions: 2 g in 100 ml distilled water
Experimental: For this test, 2 g of each sample was dissolved by heating in a beaker, 100 ml of distilled water at 70° C. was added and the mixture was stirred at the constant temperature of 70° C. for about 1 hour, after which it was allowed to cool and examined.

Row | Stability (in words) [2] | Condition of aqueous solution ([2]; 70° C., 1 hour, cooled) | Compound | effect in skin conditions [1]
1 |  |  | O=C(O)CC(O)(CC(=O)O)C(=O)O [citric acid] | effective in atopic dermatitis, ichthyosis and reduction of age-associated wrinkles
2 |  |  | CC(O)C(=O)O (centres unmarked) [lactic acid] | effective in atopic dermatitis, ichthyosis and reduction of age-associated wrinkles
3 |  |  | O=C(O)C(O)C(O)C(=O)O (centres unmarked) [tartaric acid] | effective in atopic dermatitis, ichthyosis and reduction of age-associated wrinkles
4 | Phase separation on standing | Emulsion | CCCCCCCCCCCCCCCCCC(=O)OCC(O)CO (centres unmarked) [GLYMSA, Glycerol monostearate] | 
